Data from PMC10510382, “Discovery of a First-in-Class Degrader for the Lipid Kinase PIKfyve” (Journal of Medicinal Chemistry, 2023).

Key:
PIKfyve = molecular target: T1, PIKfyve (Homo sapiens, UniProt Q9Y2I7); assay: PROTAC degradation by immunoblot in VCaP cells (DC50), blocked by warhead […] and VL285; TMT proteomics; format: cell-based
T1 construct: with VHL

von Hippel–Lindau (VHL) = molecular target: T2, von Hippel–Lindau (VHL) (Homo sapiens, UniProt P40337); assay: VHL-dependent degradation in VCaP cells: blocked by VL285; inactive hydroxy isomer […]dN does not degrade; format: cell-based
T2 construct: with PIKfyve
T2 sequence (P40337 whole entry): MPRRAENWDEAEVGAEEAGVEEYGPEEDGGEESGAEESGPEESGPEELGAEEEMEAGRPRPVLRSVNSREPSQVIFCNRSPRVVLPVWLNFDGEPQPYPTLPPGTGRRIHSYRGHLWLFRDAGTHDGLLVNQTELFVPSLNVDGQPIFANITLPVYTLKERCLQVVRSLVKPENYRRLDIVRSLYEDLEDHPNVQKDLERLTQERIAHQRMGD
T2 sequence (Q9Y2I7 2-2098 partner): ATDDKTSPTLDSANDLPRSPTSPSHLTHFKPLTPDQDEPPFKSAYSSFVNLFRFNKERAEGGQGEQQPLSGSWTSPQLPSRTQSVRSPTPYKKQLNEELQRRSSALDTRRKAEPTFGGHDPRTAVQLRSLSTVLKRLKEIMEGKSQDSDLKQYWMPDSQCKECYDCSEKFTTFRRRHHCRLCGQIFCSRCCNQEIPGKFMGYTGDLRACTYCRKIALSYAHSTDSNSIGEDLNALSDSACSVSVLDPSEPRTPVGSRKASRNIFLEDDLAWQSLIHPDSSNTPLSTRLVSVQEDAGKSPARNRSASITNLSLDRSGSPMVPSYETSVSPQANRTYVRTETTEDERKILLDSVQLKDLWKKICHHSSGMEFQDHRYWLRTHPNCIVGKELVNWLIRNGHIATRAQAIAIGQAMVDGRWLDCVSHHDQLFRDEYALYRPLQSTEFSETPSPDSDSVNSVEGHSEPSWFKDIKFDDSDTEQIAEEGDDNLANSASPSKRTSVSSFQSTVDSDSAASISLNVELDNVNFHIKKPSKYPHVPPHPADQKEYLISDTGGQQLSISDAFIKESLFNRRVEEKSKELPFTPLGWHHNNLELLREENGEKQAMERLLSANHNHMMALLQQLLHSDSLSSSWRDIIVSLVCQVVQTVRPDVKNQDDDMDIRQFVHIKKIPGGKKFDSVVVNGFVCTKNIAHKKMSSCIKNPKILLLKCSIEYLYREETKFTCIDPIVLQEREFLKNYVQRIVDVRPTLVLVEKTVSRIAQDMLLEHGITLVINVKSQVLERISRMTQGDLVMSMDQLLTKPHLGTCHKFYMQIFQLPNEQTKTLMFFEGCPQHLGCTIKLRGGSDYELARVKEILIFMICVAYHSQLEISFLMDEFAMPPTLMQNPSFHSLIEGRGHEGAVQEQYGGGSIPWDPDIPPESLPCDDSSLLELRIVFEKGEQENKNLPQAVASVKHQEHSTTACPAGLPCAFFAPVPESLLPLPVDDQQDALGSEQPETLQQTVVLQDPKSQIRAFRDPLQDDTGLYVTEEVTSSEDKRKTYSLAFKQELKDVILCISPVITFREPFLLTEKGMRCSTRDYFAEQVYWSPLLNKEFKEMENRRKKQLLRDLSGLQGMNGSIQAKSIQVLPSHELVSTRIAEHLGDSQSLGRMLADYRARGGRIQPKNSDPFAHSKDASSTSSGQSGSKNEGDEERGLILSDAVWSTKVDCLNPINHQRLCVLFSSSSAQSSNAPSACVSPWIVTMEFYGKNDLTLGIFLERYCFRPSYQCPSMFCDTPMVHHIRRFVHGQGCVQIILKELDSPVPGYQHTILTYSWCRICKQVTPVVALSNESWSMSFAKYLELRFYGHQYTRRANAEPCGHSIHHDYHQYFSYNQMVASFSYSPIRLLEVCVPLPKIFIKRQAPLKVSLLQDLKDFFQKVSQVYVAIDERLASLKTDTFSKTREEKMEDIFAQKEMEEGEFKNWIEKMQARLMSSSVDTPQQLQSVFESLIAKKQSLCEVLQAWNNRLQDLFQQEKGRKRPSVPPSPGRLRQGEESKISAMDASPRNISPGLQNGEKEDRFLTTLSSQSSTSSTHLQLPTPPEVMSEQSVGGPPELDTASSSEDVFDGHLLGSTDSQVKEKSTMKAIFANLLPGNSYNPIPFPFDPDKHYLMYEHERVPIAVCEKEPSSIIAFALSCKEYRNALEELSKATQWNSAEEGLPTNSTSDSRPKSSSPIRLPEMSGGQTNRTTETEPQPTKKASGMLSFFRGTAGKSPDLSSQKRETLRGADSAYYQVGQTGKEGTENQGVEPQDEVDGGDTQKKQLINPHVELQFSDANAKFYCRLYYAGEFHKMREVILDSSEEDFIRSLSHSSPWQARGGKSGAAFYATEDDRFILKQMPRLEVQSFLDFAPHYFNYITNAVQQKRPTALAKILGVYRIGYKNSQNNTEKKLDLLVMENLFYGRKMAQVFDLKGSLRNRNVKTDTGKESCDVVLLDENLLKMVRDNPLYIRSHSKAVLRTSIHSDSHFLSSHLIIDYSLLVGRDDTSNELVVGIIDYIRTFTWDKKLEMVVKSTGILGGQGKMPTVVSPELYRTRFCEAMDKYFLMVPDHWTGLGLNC

T1 sequence (Q9Y2I7 2-2098): as the sequence (Q9Y2I7 2-2098 partner) above

## Cc1cccc(/C=N/Nc2cc(N3CCOCC3)nc(OCCc3ccc(NC(=O)CCCCC(=O)N[C@H](C(=O)N4C[C@H](O)C[C@H]4C(=O)NCc4ccc(-c5scnc5C)cc4)C(C)(C)C)cc3)n2)c1 [12d, N^1-((S)-1-((2S,4R)-4-Hydroxy-2-((4-(4-methylthiazol-5-yl)benzyl)carbamoyl)pyrrolidin-1-yl)-3,3-dimethyl-1-oxobutan-2-yl)-N^6-(4-(2-((4-(2-((E)-3-methylbenzylidene)hydrazineyl)-6-morpholinopyrimidin-2-yl)oxy)ethyl)phenyl)adipamide]
PIKfyve
  DC50: 1.48 nM
Von Hippel–Lindau (VHL)
  VHL-dependent degradation in VCaP cells: blocked by VL285; inactive hydroxy isom: PIK5-12d induced PIKfyve degradation in a VHL- and proteasome-dependent manner
